{"source": "patent US8609362B2", "about": "“G-proteins” (Givaudan SA, priority 2002, dated 2013)", "key": {"human TAS2R38": {"target": "T1, human TAS2R38 (Homo sapiens, UniProt P59533)", "T1 construct": "expressed in transfected cells", "T1 sequence (P59533 1-333)": "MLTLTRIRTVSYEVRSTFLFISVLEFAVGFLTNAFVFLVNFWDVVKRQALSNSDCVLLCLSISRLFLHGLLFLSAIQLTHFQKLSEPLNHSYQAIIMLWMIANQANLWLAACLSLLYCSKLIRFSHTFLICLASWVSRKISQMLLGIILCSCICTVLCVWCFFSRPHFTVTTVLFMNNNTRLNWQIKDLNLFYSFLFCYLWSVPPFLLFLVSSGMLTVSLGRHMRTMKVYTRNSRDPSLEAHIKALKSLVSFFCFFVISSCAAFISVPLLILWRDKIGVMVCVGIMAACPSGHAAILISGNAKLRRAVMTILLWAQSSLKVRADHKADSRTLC", "assay": "Fluo-4 calcium assay, tetracycline-inducible cells stably expressing human TAS2R38 and G16gust44", "assay_type": "cell-based", "settings": "ligand 250 μM; for fluorescence signal (in words): HEK293 T-Rex cells, TAS2R38, G16-gustducin 44", "excerpt": "(§1) The following results were obtained:"}, "[1]": {"tested_on": "G-protein only (control w/o tetracycline)", "assay": "Fluo-4 calcium assay, G-protein only control w/o tetracycline (TAS2R38 cell line)", "assay_type": "cell-based", "settings": "Gα16gustducin44, ligand 250 μM", "excerpt": "as §1"}, "human TAS2R16": {"target": "T2, human TAS2R16 (Homo sapiens, UniProt Q9NYV7)", "T2 construct": "expressed in transfected cells; host or cells: HEK293T cells stably expressing Gα16gustducin44, Gα16 or Gα16z44", "T2 sequence (Q9NYV7 1-291)": "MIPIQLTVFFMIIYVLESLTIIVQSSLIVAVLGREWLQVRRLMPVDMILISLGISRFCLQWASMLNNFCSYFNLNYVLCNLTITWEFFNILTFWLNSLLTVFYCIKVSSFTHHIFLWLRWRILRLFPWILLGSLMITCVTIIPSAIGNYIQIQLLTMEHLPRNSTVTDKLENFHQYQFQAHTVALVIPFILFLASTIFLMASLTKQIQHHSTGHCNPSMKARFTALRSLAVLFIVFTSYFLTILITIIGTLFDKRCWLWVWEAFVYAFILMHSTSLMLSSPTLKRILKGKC", "assay": "Fluo-4 calcium assay, cells transiently transfected with human TAS2R16 and expressing a promiscuous G-protein", "assay_type": "cell-based", "settings": "TAS2R16, ligand 5 mM", "description": "The protocol is described in “G-protein coupled receptors (Signal Transduction Series)”; Editors: Tatsuya Haga and Gabriel Berstein, 1st ed., 424 pp.CRC Press—Boca Raton, Fla.; September 1999, and may be summarised as follows: • 1. Day 0: 96-well plates are seeded with 20K cells per well and maintained at 37 degrees C. overnight in nutritive growth media. • 2. Day 1: Cells are transfected using 300 ng of GPCR DNA and 0.6 μl of Lipofectamine 2000 (Invitrogen) per well. Transfected cells are and maintained at 37 degrees C. overnight in nutritive growth media. • 3.\nAt day 0, cells stably expressing the G-protein are plated in black, clear-bottom 96-well plate at 20,000 cells per well and grown overnight in selective growth media. On day 1, the media is changed to an antibiotic-free growth media and the cells are transfected using 300 ng GPCR DNA and 0.6 μl of Lipofectamine 2000 (Invitrogen). The cells are grown overnight and processed the next day using the Fluo-4 calcium assay conditions described in Example 2 above."}, "[2]": {"tested_on": "G-protein only (control w/o tetracycline)", "settings": "Gα16gustducin44, ligand 250 μM", "protocol": "All assays are performed using black, clear-bottom 96-well plates that have been seeded the day before with 20K transfected cells per well and have been maintained at 37 degrees C. overnight in appropriate growth media. At the time of the assay, the growth media is discarded and cells are incubated for 1 hour (at room temperature in the dark) with 75 μl of a calcium assay solution consisting of 1.5 μM Fluo-4 AM (Molecular Probes) and 2.5 mM probenicid (Sigma-Aldrich) dissolved in a Hanks balanced salts solution (HBSS) that has been supplemented with 10 mM Hepes, 200 μM calcium chloride and 0.1% bovine serum albumin, pH 7.4 at 37 degrees C. […] For assay reading, the plate is placed in a fluorescent microplate reader, for example the Flexstation (Molecular Devices), and receptor activation is initiated following addition of 20 μl of a 10× concentrated ligand stock solution. Fluorescence is continuously monitored for 15 seconds prior to ligand addition and for 45-75 seconds after ligand addition. Receptor activation levels are defined as by the two following equations: % Activation=(Maximum fluorescence−baseline fluorescence/baseline fluorescence)*100 or Fluorescence Increase=Maximum Fluorescence—baseline fluorescence, where baseline fluorescence represents the average fluorescence levels prior to ligand addition. […]"}, "[3]": {"tested_on": "sham transfected (control)", "assay": "Fluo-4 calcium assay, sham transfected control cells of Table 7", "assay_type": "cell-based", "description": "(§2) At day 0, cells stably expressing the G-protein are plated in a 6-well plate at a density of 800,000-950,000 cells per well and grown overnight in selective growth media. On day 1, the media is changed to an antibiotic-free growth media and the cells are transfected using 2 μg of T1 R2 and 2 μg of T1 R3 cDNA and 10 μl of Lipofectamine 2000 (Invitrogen). The cells are maintained overnight in antibiotic-free growth media. On day 2, the cells are replated into a black, clear-bottom 96 well plate at 20,000 cells per well and grown overnight. The morning of the calcium assay, the media is replaced with low glucose media supplemented with Glutamax and dialyzed FBS to minimize receptor desensitization by sugars and glutamate. The cells are further incubated in this media for 6 hours at 37 degrees C. At the end of this period, the cells are processed for the calcium assay according to conditions described above.\n(§3) Following the methodology as described in Example 5 the following results were obtained: […]"}, "human TAS1R2/TAS1R3": {"target": "T3, human TAS1R2/TAS1R3 (Homo sapiens, UniProt Q7RTX0+Q8TE23)", "T3 construct": "expressed in transfected cells; host or cells: HEK293T cells stably expressing the G-protein, co-transfected with T1R2 and T1R3 cDNA", "T3 sequence (Q8TE23 20-839)": "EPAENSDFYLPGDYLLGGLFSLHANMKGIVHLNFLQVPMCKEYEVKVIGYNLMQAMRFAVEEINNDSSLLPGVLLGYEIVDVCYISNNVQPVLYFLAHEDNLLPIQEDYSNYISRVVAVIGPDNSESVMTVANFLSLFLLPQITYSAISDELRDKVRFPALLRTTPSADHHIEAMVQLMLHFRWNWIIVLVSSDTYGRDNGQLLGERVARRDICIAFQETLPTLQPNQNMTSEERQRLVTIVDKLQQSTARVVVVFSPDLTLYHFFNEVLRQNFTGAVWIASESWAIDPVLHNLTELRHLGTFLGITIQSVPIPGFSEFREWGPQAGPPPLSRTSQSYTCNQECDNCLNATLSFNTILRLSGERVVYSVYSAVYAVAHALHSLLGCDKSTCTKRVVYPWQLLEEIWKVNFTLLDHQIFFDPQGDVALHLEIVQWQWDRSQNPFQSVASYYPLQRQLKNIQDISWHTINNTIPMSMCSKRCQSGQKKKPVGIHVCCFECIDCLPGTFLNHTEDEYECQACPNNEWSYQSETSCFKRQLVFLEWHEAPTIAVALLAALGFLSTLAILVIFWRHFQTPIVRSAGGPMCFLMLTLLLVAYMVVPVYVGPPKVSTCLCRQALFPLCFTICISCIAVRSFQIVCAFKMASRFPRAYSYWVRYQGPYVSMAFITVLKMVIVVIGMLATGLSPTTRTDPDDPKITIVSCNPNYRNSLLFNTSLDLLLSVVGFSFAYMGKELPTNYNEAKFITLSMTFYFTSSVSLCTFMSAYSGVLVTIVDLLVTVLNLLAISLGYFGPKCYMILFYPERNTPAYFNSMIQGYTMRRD", "T3 sequence (Q7RTX0 21-852)": "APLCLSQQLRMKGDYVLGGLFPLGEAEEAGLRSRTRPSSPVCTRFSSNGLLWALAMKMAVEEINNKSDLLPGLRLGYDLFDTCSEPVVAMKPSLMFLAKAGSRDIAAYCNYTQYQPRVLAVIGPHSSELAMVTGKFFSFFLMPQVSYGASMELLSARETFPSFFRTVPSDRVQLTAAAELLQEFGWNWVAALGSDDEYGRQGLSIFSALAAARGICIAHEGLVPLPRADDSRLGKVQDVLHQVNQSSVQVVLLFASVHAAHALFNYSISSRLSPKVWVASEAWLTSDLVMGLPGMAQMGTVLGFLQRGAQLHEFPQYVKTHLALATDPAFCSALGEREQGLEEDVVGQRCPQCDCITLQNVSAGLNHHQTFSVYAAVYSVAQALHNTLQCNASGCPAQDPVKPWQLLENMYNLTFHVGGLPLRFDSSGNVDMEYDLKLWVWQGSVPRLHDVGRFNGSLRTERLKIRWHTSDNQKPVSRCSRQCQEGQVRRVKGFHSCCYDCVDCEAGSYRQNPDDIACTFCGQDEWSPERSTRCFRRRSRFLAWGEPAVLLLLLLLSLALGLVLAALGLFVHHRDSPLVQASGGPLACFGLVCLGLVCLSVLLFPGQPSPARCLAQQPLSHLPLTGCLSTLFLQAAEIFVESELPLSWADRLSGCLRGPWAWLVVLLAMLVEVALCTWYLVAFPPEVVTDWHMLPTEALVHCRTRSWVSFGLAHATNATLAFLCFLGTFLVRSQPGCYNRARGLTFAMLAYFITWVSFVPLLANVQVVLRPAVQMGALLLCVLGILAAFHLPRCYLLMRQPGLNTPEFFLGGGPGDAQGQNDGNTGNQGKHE", "assay": "Fluo-4 calcium assay, cells transfected with human sweet receptor TAS1R2/TAS1R3 and expressing a promiscuous G-protein", "assay_type": "cell-based", "description": "as §2, §3"}, "[4]": {"settings": "G-protein Gα16gustducin44, ligand 2.5 mM"}}, "note": "Where two headings read alike, the source gives them in different places.", "data": [{"molecule": "NC(=S)Nc1ccccc1", "note": "[phenylthiocarbamide]", "values": [{"measurement": "increase in mean fluorescence over baseline following ligand addition", "setting": "human TAS2R38; G-protein + human TAS2R38 (with tetracycline), Gα16gustducin44", "value": 8989, "unit": "RFUs"}, {"measurement": "fluorescence signal (in words)", "setting": "human TAS2R38", "value": "robust fluorescence signal"}, {"measurement": "increase in mean fluorescence over baseline following ligand addition", "setting": "[1]", "value": 3422, "unit": "RFUs"}]}, {"molecule": "CCCc1cc(=O)[nH]c(=S)[nH]1", "note": "[propythiouracil]", "values": [{"measurement": "fluorescence signal (in words)", "setting": "human TAS2R38", "value": "robust response"}]}, {"molecule": "OCc1ccccc1O[C@@H]1O[C@H](CO)[C@@H](O)[C@H](O)[C@H]1O", "note": "[salicin]", "values": [{"measurement": "fluorescent signal with Gα16-gustducin 44, times stronger than reference chimeric G-protein Gα16-z44", "setting": "human TAS2R16; HEK293T cells, Flexstation", "value": "about 3 times"}, {"measurement": "fluorescent signal with Gα16-gustducin 44, times stronger than wild-type Gα16", "setting": "human TAS2R16; HEK293T cells, Flexstation", "value": "about 7 times"}, {"measurement": "fluorescent signal (in words)", "setting": "human TAS2R16", "value": "robust fluorescent signal"}]}, {"molecule": "O=C1C[C@@H]2OCC=C3CN4CC[C@]56c7ccccc7N1[C@H]5[C@H]2[C@H]3C[C@H]46", "note": "[strychnine]", "values": [{"measurement": "increase in mean fluorescence over baseline following ligand addition", "setting": "[2]", "value": 13238, "unit": "RFUs"}]}, {"molecule": "OC[C@H]1O[C@H](O[C@]2(CCl)O[C@H](CCl)[C@@H](O)[C@@H]2O)[C@H](O)[C@@H](O)[C@H]1Cl", "note": "[sucralose]", "values": [{"measurement": "increase in mean fluorescence over baseline following ligand addition", "setting": "[3]; G-protein Gα15, ligand 2.5 mM", "value": 643, "unit": "RFUs"}, {"measurement": "increase in mean fluorescence over baseline following ligand addition", "setting": "[3]; [4]", "value": 1370, "unit": "RFUs"}, {"measurement": "increase in mean fluorescence over baseline following ligand addition", "setting": "human TAS1R2/TAS1R3; G-protein Gα15, ligand 2.5 mM", "value": 1300, "unit": "RFUs"}, {"measurement": "increase in mean fluorescence over baseline following ligand addition", "setting": "human TAS1R2/TAS1R3; [4]", "value": 4617, "unit": "RFUs"}, {"measurement": "fluorescence signal with Gα16-gustducin 44, times stronger than wild-type Gα16", "setting": "human TAS1R2/TAS1R3; HEK293T cells, ligand 2.5 mM", "value": 2, "unit": "times"}, {"measurement": "fluorescence signal (in words)", "setting": "human TAS1R2/TAS1R3; ligand 2.5 mM", "value": "robust flurorescence signal"}]}]}
